Publication PMC7156458, “Synthetic biology based construction of biological activity-related library of fungal decalin-containing diterpenoid pyrones” (Nature Communications, 2020)

Target: Aβ42 (Homo sapiens, UniProt P05067)
Assay: Th-T (thioflavin-T) assay of Aβ42 aggregation
Format: biochemical

Sequence of Aβ42 (P05067 672-713): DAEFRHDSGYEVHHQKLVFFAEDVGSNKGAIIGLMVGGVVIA

C=C1CCC2C(C)(CCC=C(C)C)C(O)CCC2(C)C1Cc1c(OC)oc(C)c(C(=O)OC)c1=O (stereo not drawn) [Compound 14] was tested, and the “Fig. 7a Th-T reading, mean of three wells” value (“Fig. 7a Th-T reading, mean” for short) (column suffix _20, reading M101) was 1.75, the “Fig. 7a Th-T reading, mean” value (column suffix _20, reading M102) was 1.725 and the “Fig. 7a Th-T reading, mean” value (column suffix _20, reading M103) was 1.692. For the same molecule, the “Fig. 7a Th-T reading, mean” value (column suffix _20, reading M104) was 1.726, the “Fig. 7a Th-T reading, mean” value (column suffix _20, reading M105) was 1.714 and the “Fig. 7a Th-T reading, mean” value (column suffix _20, reading M106) was 1.718. The “Th-T fluorescence, mean of three wells (Fig. 7a)” value (“Th-T fluorescence … (Fig. 7a)” for short) (column suffix _50, measurement M19) was 0.5495, the “Th-T fluorescence … (Fig. 7a)” value (column suffix _50, measurement M20) was 0.5788 and the “Th-T fluorescence … (Fig. 7a)” value (column suffix _50, measurement M21) was 0.6066. For the same molecule, the “Th-T fluorescence … (Fig. 7a)” value (column suffix _50, measurement M22) was 0.6351, the “Th-T fluorescence … (Fig. 7a)” value (column suffix _50, measurement M23) was 0.669 and the “Th-T fluorescence … (Fig. 7a)” value (column suffix _50, measurement M24) was 0.7075. The “Th-T fluorescence … (Fig. 7a)” value (column suffix _50, measurement M25) was 0.7535, the “Th-T fluorescence … (Fig. 7a)” value (column suffix _50, measurement M26) was 0.8076 and the “Th-T fluorescence … (Fig. 7a)” value (column suffix _50, measurement M27) was 0.8688. The “Th-T fluorescence … (Fig. 7a)” value (column suffix _50, measurement M28) was 0.9376, the “Th-T fluorescence … (Fig. 7a)” value (column suffix _50, measurement M29) was 1.02 and the “Th-T assay signal, mean of three wells (Fig. 7a)” value (“Th-T assay signal, mean” below) (column suffix _50, reading M1) was 0.5105. For the same molecule, the “Th-T assay signal, mean” value (column suffix _50, reading M2) was 0.462, the “Th-T assay signal, mean” value (column suffix _50, reading M3) was 0.4558 and the “Th-T assay signal, mean” value (column suffix _50, reading M4) was 0.4485. The “Th-T assay signal, mean” value (column suffix _50, reading M5) was 0.4526, the “Th-T assay signal, mean” value (column suffix _50, reading M6) was 0.449 and the “Th-T assay signal, mean” value (column suffix _50, reading M7) was 0.4479. The “Th-T assay signal, mean” value (column suffix _50, reading M8) was 0.4517, the “Th-T assay signal, mean” value (column suffix _50, reading M9) was 0.4533 and the “Th-T assay signal, mean” value (column suffix _50, reading M10) was 0.4553. For the same molecule, the “Th-T assay signal, mean” value (column suffix _50, reading M11) was 0.4593, the “Th-T assay signal, mean” value (column suffix _50, reading M12) was 0.4664 and the “Th-T assay signal, mean” value (column suffix _50, reading M13) was 0.4713. For the same molecule, the “Th-T assay signal, mean” value (column suffix _50, reading M14) was 0.4784, the “Th-T assay signal, mean” value (column suffix _50, reading M15) was 0.4927 and the “Th-T assay signal, mean” value (column suffix _50, reading M16) was 0.5. For the same molecule, the “Th-T assay signal, mean” value (column suffix _50, reading M17) was 0.5148, the “Th-T assay signal, mean” value (column suffix _50, reading M18) was 0.5358 and the “Fig. 7a Th-T reading, mean” value (column suffix _50, reading M85) was 2.033. For the same molecule, the “Fig. 7a Th-T reading, mean” value (column suffix _50, reading M86) was 1.994, the “Fig. 7a Th-T reading, mean” value (column suffix _50, reading M87) was 1.943 and the “Fig. 7a Th-T reading, mean” value (column suffix _50, reading M88) was 1.897. For the same molecule, the “Fig. 7a Th-T reading, mean” value (column suffix _50, reading M89) was 1.8491, the “Fig. 7a Th-T reading, mean” value (column suffix _50, reading M90) was 1.8142 and the “Fig. 7a Th-T reading, mean” value (column suffix _50, reading M91) was 1.746. For the same molecule, the “Fig. 7a Th-T reading, mean” value (column suffix _50, reading M92) was 1.726, the “Fig. 7a Th-T reading, mean” value (column suffix _50, reading M93) was 1.698 and the “Fig. 7a Th-T reading, mean” value (column suffix _50, reading M94) was 1.676. For the same molecule, the “Fig. 7a Th-T reading, mean” value (column suffix _50, reading M95) was 1.616, the “Fig. 7a Th-T reading, mean” value (column suffix _50, reading M96) was 1.587 and the “Fig. 7a Th-T reading, mean” value (column suffix _50, reading M97) was 1.553. The “Fig. 7a Th-T reading, mean” value (column suffix _50, reading M98) was 1.5408, the “Fig. 7a Th-T reading, mean” value (column suffix _50, reading M99) was 1.482 and the “Fig. 7a Th-T reading, mean” value (column suffix _50, reading M100) was 1.465. The “Fig. 7a Th-T reading, mean” value (column suffix _50, reading M101) was 1.408, the “Fig. 7a Th-T reading, mean” value (column suffix _50, reading M102) was 1.3987 and the “Fig. 7a Th-T reading, mean” value (column suffix _50, reading M103) was 1.372. For the same molecule, the “Fig. 7a Th-T reading, mean” value (column suffix _50, reading M104) was 1.353, the “Fig. 7a Th-T reading, mean” value (column suffix _50, reading M105) was 1.325 and the “Fig. 7a Th-T reading, mean” value (column suffix _50, reading M106) was 1.281. The “Th-T fluorescence, mean of three wells” value (compound at 10, reading M41 of time course) was 2.4889, the “Th-T fluorescence, mean of three wells” value (compound at 10, reading M42 of time course) was 2.504 and the “Th-T fluorescence, mean of three wells” value (compound at 10, reading M43 of time course) was 2.483. For the same molecule, the “Th-T fluorescence, mean of three wells” value (compound at 10, reading M44 of time course) was 2.485, the “Th-T fluorescence, mean of three wells” value (compound at 10, reading M45 of time course) was 2.494 and the “Th-T fluorescence, mean of three wells” value (compound at 10, reading M46 of time course) was 2.517. The “Th-T fluorescence, mean of three wells” value (compound at 10, reading M47 of time course) was 2.535, the “Th-T fluorescence, mean of three wells” value (compound at 10, reading M48 of time course) was 2.517 and the “Th-T fluorescence, mean of three wells” value (compound at 10, reading M49 of time course) was 2.512. The “Th-T fluorescence, mean of three wells” value (compound at 10, reading M50 of time course) was 2.53, the “Th-T fluorescence, mean of three wells” value (compound at 10, reading M51 of time course) was 2.541 and the “Th-T fluorescence, mean of three wells” value (compound at 10, reading M52 of time course) was 2.557. The “Th-T fluorescence, mean of three wells” value (compound at 10, reading M53 of time course) was 2.545, the “Th-T fluorescence, mean of three wells” value (compound at 10, reading M54 of time course) was 2.546 and the “Th-T fluorescence, mean of three wells” value (compound at 10, reading M55 of time course) was 2.573. The “Th-T fluorescence, mean of three wells” value (compound at 10, reading M56 of time course) was 2.561, the “Th-T fluorescence, mean of three wells” value (compound at 10, reading M57 of time course) was 2.58 and the “Th-T fluorescence, mean of three wells” value (compound at 10, reading M58 of time course) was 2.605. For the same molecule, the “Th-T fluorescence, mean of three wells” value (compound at 10, reading M59 of time course) was 2.634, the “Th-T fluorescence, mean of three wells” value (compound at 10, reading M60 of time course) was 2.6643 and the “Th-T fluorescence, mean of three wells” value (compound at 10, reading M61 of time course) was 2.702. For the same molecule, the “Th-T fluorescence, mean of three wells” value (compound at 10, reading M62 of time course) was 2.713, the “Th-T fluorescence, mean of three wells” value (compound at 20, reading M41 of time course) was 2.067 and the “Th-T fluorescence, mean of three wells” value (compound at 20, reading M42 of time course) was 2.077. The “Th-T fluorescence, mean of three wells” value (compound at 20, reading M43 of time course) was 2.068, the “Th-T fluorescence, mean of three wells” value (compound at 20, reading M44 of time course) was 2.111 and the “Th-T fluorescence, mean of three wells” value (compound at 20, reading M45 of time course) was 2.074. For the same molecule, the “Th-T fluorescence, mean of three wells” value (compound at 20, reading M46 of time course) was 2.138, the “Th-T fluorescence, mean of three wells” value (compound at 20, reading M47 of time course) was 2.131 and the “Th-T fluorescence, mean of three wells” value (compound at 20, reading M48 of time course) was 2.161. For the same molecule, the “Th-T fluorescence, mean of three wells” value (compound at 20, reading M49 of time course) was 2.157, the “Th-T fluorescence, mean of three wells” value (compound at 20, reading M50 of time course) was 2.15 and the “Th-T fluorescence, mean of three wells” value (compound at 20, reading M51 of time course) was 2.157. The “Th-T fluorescence, mean of three wells” value (compound at 20, reading M52 of time course) was 2.143, the “Th-T fluorescence, mean of three wells” value (compound at 20, reading M53 of time course) was 2.161 and the “Th-T fluorescence, mean of three wells” value (compound at 20, reading M54 of time course) was 2.178. For the same molecule, the “Th-T fluorescence, mean of three wells” value (compound at 20, reading M55 of time course) was 2.1338, the “Th-T fluorescence, mean of three wells” value (compound at 20, reading M56 of time course) was 2.09 and the “Th-T fluorescence, mean of three wells” value (compound at 20, reading M57 of time course) was 2.136. For the same molecule, the “Th-T fluorescence, mean of three wells” value (compound at 20, reading M58 of time course) was 2.093, the “Th-T fluorescence, mean of three wells” value (compound at 20, reading M59 of time course) was 2.054 and the “Th-T fluorescence, mean of three wells” value (compound at 20, reading M60 of time course) was 2.083. For the same molecule, the “Th-T fluorescence, mean of three wells” value (compound at 20, reading M61 of time course) was 2.064, the “Th-T fluorescence, mean of three wells” value (compound at 20, reading M62 of time course) was 2.104 and the “Th-T fluorescence, mean of three wells” value (compound at 50, reading M41 of time course) was 4.082. For the same molecule, the “Th-T fluorescence, mean of three wells” value (compound at 50, reading M42 of time course) was 4.376, the “Th-T fluorescence, mean of three wells” value (compound at 50, reading M43 of time course) was 4.613 and the “Th-T fluorescence, mean of three wells” value (compound at 50, reading M44 of time course) was 4.79. The “Th-T fluorescence, mean of three wells” value (compound at 50, reading M45 of time course) was 4.938, the “Th-T fluorescence, mean of three wells” value (compound at 50, reading M46 of time course) was 5.058 and the “Th-T fluorescence, mean of three wells” value (compound at 50, reading M47 of time course) was 5.101. The “Th-T fluorescence, mean of three wells” value (compound at 50, reading M48 of time course) was 5.128, the “Th-T fluorescence, mean of three wells” value (compound at 50, reading M49 of time course) was 5.105 and the “Th-T fluorescence, mean of three wells” value (compound at 50, reading M50 of time course) was 5.093. For the same molecule, the “Th-T fluorescence, mean of three wells” value (compound at 50, reading M51 of time course) was 4.998, the “Th-T fluorescence, mean of three wells” value (compound at 50, reading M52 of time course) was 4.942 and the “Th-T fluorescence, mean of three wells” value (compound at 50, reading M53 of time course) was 4.822.
